≈ marks a conversion by molar mass, not a printed value. Each block holds one compound with its values, some of them ahead of it. Calls of active or inactive are those of the source. The rule behind the calls is not given here. Where a SMILES comes first, the peptide text is derived from it. The star is where a group is joined. Lauroyl = CCCCCCCCCCCC(=O)*; Decanoyl = CCCCCCCCCC(=O)*; Butyryl = CCCC(=O)*
Columns and labels:
[1] = Self-assembly behavior of compound in saline solution assessed as critical micelle concentration by spectrophotometer analysis; assay type: physicochemical; details: buffer
B16-F10 [2] = experiment: Membrano-lytic activity in mouse B16-F10 cell membrane at 1.25 to 20 uM measured after 1 hr by LDH leakage assay; assay type: cell-based; details: dose 1.25-20 µM
trypsin = trypsin (Homo sapiens, UniProt P07477+P07478+P35030); experiment: Stability of compound assessed as trypsin (unknown origin)-mediated compound degradation measured upto 6 hrs by RP-HPLC analysis; assay type: ADME, protein assay; details: trypsin (enzyme solution), read-out: Drug degradation
B16-F10 [3] = experiment: Cytotoxicity against mouse B16-F10 cells assessed as reduction in cell viability at 1.25 to 20 uM measured after 24 hrs by MTT assay; assay type: functional, cell-based; details: dose 1.25-20 µM
B16-F10 [4] = experiment: Cytotoxicity against mouse B16-F10 cells assessed as reduction in cell viability measured after 1 hrs by MTT assay; assay type: functional, cell-based; details: dose 1.25-20 µM
Staphylococcus aureus = experiment: Antibacterial activity against Staphylococcus aureus ATCC […] assessed as reduction in bacterial growth measured for 18 hrs by serial dilution method; assay type: functional
Escherichia coli = experiment: Antibacterial activity against Escherichia coli ATCC 25922 assessed as reduction in bacterial growth measured for 18 hrs by serial dilution method; assay type: functional
B16-F10 [5] = experiment: Membrano-lytic activity in mouse B16-F10 cell membrane measured after 1 hr by LDH leakage assay; assay type: cell-based; details: dose 1.25-20 µM
B16-F10 [6] = experiment: Induction of mitochondrial membrane potential loss in mouse B16-F10 cells assessed as decrease in fluorescence intensity at 10 uM measured at 0.5 to 4 hrs by flow cytometry analysis; assay type: functional, cell-based; details: time 0.5-4 hrs
B16-F10 [7] = experiment: Induction of mitochondrial membrane potential loss in mouse B16-F10 cells at 10 uM by flow cytometry analysis; assay type: functional, cell-based; details: time 0.5-4 hrs, TDE = time-dependent effect
B16-F10 [8] = experiment: Membrano-lytic activity in mouse B16-F10 cell membrane at 20 uM measured at 1 hr by LDH leakage assay; assay type: cell-based
B16-F10 [9] = experiment: Antitumor activity against mouse B16-F10 cells implanted in intratumorally dosed C57BL/6 mouse assessed as reduction in tumor volume administered for 3 days by vernier caliper method; assay type: functional, organism-based; details: time 3.0 day
B16-F10 [10] = experiment: Induction of apoptosis in mouse B16-F10 cells assessed as decrease in ATP level; assay type: functional, cell-based
B16-F10 [11] = experiment: Induction of cell membrane disruption in mouse B16-F10 cells at 20 uM measured for 30 mins by PI staining based microplate reader assay
B16-F10 [12] = experiment: Induction of ROS production in mouse B16-F10 cells at 10 uM measured for 0.5 to 4 hrs by MitoSOX red dye based microplate reader analysis; assay type: functional, cell-based; details: time 0.5-4 hrs
B16-F10 [13] = experiment: Induction of necrotic cell death in mouse B16-F10 at 10 uM measured after 1 to 24 hrs; assay type: functional, cell-based; details: time 1-24 hrs
B16-F10 [14] = experiment: Induction of cell cycle arrest in mouse B16-F10 cells assessed as accumulation at G0/G1 phase at 10 uM and measured after 24 hrs PI staining based by flow cytometry; assay type: functional
B16-F10 [15] = experiment: Induction of apoptosis in mouse B16-F10 cells assessed as activation of caspase-3 incubated for 24 hrs by microplate reader analysis; assay type: functional, cell-based
B16-F10 [16] = experiment: Membrano-lytic activity in mouse B16-F10 cell membrane at 1.25 to 20 uM measured after 4 hr by LDH leakage assay; assay type: cell-based; details: dose 1.25-20 µM
B16-F10 [17] = experiment: Induction of necroptosis in mouse B16-F10 cells assessed as cell death at 5 to 20 uM measured for 4 to 24 hrs in presence of Nec-1; assay type: functional, cell-based; details: dose 5-20 µM, time 4-24 hrs
[18] = Toxicity in C57BL/6 […] mouse implanted with mouse B16-F10 cells assessed as animal death administered intratumorally; assay type: cell-based; details: in vivo, other, route it(Intratumoral)
B16-F10 [19] = experiment: Cytotoxicity against mouse B16-F10 cells assessed as induction of cell death measured for 4 to 24 hrs by MTT assay; assay type: functional, cell-based; details: time 4-24 hrs
B16-F10 [20] = experiment: Induction of cell membrane disruption in mouse B16-F10 cells at 20 uM by PI staining based microplate reader assay; details: time 30.0 min, TDE = time-dependent effect
B16-F10 [21] = experiment: Induction of ROS production in mouse B16-F10 cells at 10 uM measured for 0.5 to 4 hrs by DCFH-DA dye based microplate reader analysis; assay type: functional, cell-based; details: time 0.5-4 hrs
B16-F10 [22] = experiment: Induction of morphological changes in mouse B16-F10 cells assessed as cell bursting at 20 uM incubated for 30 mins by microscopic analysis; assay type: functional, cell-based
B16-F10 [23] = experiment: Induction of morphological changes in mouse B16-F10 cells assessed as cell swelling at 20 uM incubated for 30 mins by microscopic analysis; assay type: functional, cell-based
B16-F10 [24] = experiment: Induction of morphological changes in mouse B16-F10 cells assessed as cell rounding at 20 uM incubated for 30 mins by microscopic analysis; assay type: functional, cell-based
B16-F10 [25] = experiment: Antiproliferative activity against mouse B16-F10 cells assessed as inhibition of cell viability by measuring ATP level at 10 uM measured for 4 to 24 hrs; assay type: functional, cell-based; details: time 4-24 hrs
B16-F10 [26] = experiment: Induction of necroptosis in mouse B16-F10 cells assessed as increase in ROS level; assay type: functional, cell-based

CMC [1]: 32.61 µM
SMILES: CCCCCCCCCC(=O)N[C@@H](CCCCN)C(=O)N[C@@H](Cc1c[nH]c2ccccc12)C(=O)N[C@@H](CCCCN)C(=O)N[C@@H](CC(C)C)C(=O)N[C@@H](Cc1ccccc1)C(=O)N[C@@H](CCCCN)C(=O)N[C@@H](CCCCN)C(=O)N[C@H](C(=O)NCC(=O)N[C@@H](C)C(=O)N[C@H](C(=O)N[C@@H](CC(C)C)C(=O)N[C@@H](CCCCN)C(=O)N[C@H](C(=O)N[C@@H](CC(C)C)C(N)=O)C(C)C)C(C)C)[C@@H](C)CC (Decanoyl-KWKLFKKIGAVLKVL-NH2)

metabolised at 6 h (trypsin): 100%
MIC (Staphylococcus aureus): 2 µM (≈ 3.68 µg/mL)
MIC (Escherichia coli): 4 µM (≈ 7.36 µg/mL)
SMILES: CCCC(=O)N[C@@H](CCCCN)C(=O)N[C@@H](Cc1c[nH]c2ccccc12)C(=O)N[C@@H](CCCCN)C(=O)N[C@@H](CC(C)C)C(=O)N[C@@H](Cc1ccccc1)C(=O)N[C@@H](CCCCN)C(=O)N[C@@H](CCCCN)C(=O)N[C@H](C(=O)NCC(=O)N[C@@H](C)C(=O)N[C@H](C(=O)N[C@@H](CC(C)C)C(=O)N[C@@H](CCCCN)C(=O)N[C@H](C(=O)N[C@@H](CC(C)C)C(N)=O)C(C)C)C(C)C)[C@@H](C)CC (Butyryl-KWKLFKKIGAVLKVL-NH2)
Activity (B16-F10 [2]): Active
Activity (B16-F10 [3]): Active
Activity (B16-F10 [4]): Dose-Dependent Effect
Activity (B16-F10 [5]): Dose-Dependent Effect

SMILES: CCCCCCCCCCCC(=O)N[C@@H](CCCCN)C(=O)N[C@@H](Cc1c[nH]c2ccccc12)C(=O)N[C@@H](CCCCN)C(=O)N[C@@H](CC(C)C)C(=O)N[C@@H](Cc1ccccc1)C(=O)N[C@@H](CCCCN)C(=O)N[C@@H](CCCCN)C(=O)N[C@H](C(=O)NCC(=O)N[C@@H](C)C(=O)N[C@H](C(=O)N[C@@H](CC(C)C)C(=O)N[C@@H](CCCCN)C(=O)N[C@H](C(=O)N[C@@H](CC(C)C)C(N)=O)C(C)C)C(C)C)[C@@H](C)CC (Lauroyl-KWKLFKKIGAVLKVL-NH2)
Activity (B16-F10 [6]): Active
Activity (B16-F10 [7]): Tde
Activity (B16-F10 [8]): Active
CMC [1]: 7.16 µM
Activity (B16-F10 [9]): Active
Activity (B16-F10 [10]): inactive
Activity (B16-F10 [11]): Active
Activity (B16-F10 [12]): Active
Activity (B16-F10 [13]): Active
Activity (B16-F10 [14]): inactive
Activity (B16-F10 [15]): inactive
metabolised at 6 h (trypsin): 18.9%
Activity (B16-F10 [16]): Active
Activity (B16-F10 [17]): Active
Activity [18]: Non-Toxic
Activity (B16-F10 [3]): Active
Activity (B16-F10 [19]): inactive
Activity (B16-F10 [20]): Tde
Activity (B16-F10 [21]): Active
Activity (B16-F10 [22]): Active
Activity (B16-F10 [23]): Active
Activity (B16-F10 [24]): Active
Activity (B16-F10 [4]): Dose-Dependent Effect
Activity (B16-F10 [25]): Active
MIC (Staphylococcus aureus): 8 µM (≈ 15.6 µg/mL)
MIC (Escherichia coli): 8 µM (≈ 15.6 µg/mL)
Activity (B16-F10 [26]): Active
Activity (B16-F10 [5]): Dose-Dependent Effect

— ChEMBL document CHEMBL5338712, “Influence of chain length on the anticancer activity of the antimicrobial peptide CAMEL with fatty acid modification” (Eur J Med Chem, 2022)
